These results are taken from PubChem BioAssay (NCI).

Values joined by “and” are separate entries in the source; they are usually repeats but may differ in a detail not shown here. Equal entries are not always repeated.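 Briefly, cells in 96-well plates were exposed to five compound concentrations for 48 h, and endpoints were estimated by linear interpolation. Here, GI50 denotes the concentration required for 50% inhibition of growth. TGI marks complete inhibition of growth.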

What all share (test): DTP human tumour cell line panel, 48 h
The test system of assay [1] is NCI-H23 lung.
For assay [2], the system named is SF-295 CNS.
Assay [3] deals with OVCAR-8 ovarian.
For assay [4], the system named is MCF7 breast.
In assay [5] the test system is HOP-92 NSCLC.
Assay [6] relates to MDA-MB-435.
The subject of assay [7] is SK-MEL-28 melanoma.
For assay [8], the system named is EKVX NSCLC.
In assay [9] the test system is SK-OV-3 ovarian.
Assay [10] relates to HS 578T breast.

For orientation: TGI means the concentration at which net growth stops. Lower therefore signals more potent growth arrest. Usually GI50 stands for the concentration giving 50% growth inhibition. With `C/C=C(/C)C(=O)O[C@H]1[C@H](O)CC(c2ccc3c(c2O)C(O)=C2C(=O)C4(OC)C(O)=C(C(N)=O)C(=O)[C@H](CC(=O)c5ccccc5O)C4CC2[C@@]3(C)OC)O[C@@H]1C` (stereo not given in full), the TGI was 0.228 µM and 0.067 µM in assay [1]; 0.193 µM and 0.128 µM in assay [2]; 1.67 µM and 0.713 µM in [3]; 1.15 µM in assay [4]; 0.625 µM in assay [5]; 1.64 µM in assay [6]. Also, the TGI is 2.56 µM and 2.45 µM in [7]; 0.518 µM in assay [8]; 5.72 µM and 2.05 µM in assay [9]. In [7], the GI50 is 1.06 µM.

Consider `Brc1ccc2c(-c3csc(-c4c[nH]c5ccccc45)n3)c[nH]c2c1`, for which the GI50 in [1] is 14.5 µM; in [2] it was 14.6 µM; in assay [4] it was 16.7 µM. In addition, the TGI was 28.2 µM in assay [1]; 29.5 µM in assay [2]; 33.1 µM in [3]; 37.1 µM in [4]; 33.3 µM in assay [5]; 32.9 µM in assay [6]. Also, the total growth inhibition concentration (TGI) stood at 31 µM in assay [7], 36.1 µM in [8] and 44.8 µM in assay [9].

For `[N-]=[N+]=C(C(=O)N1CCCC1=O)S(=O)(=O)c1ccccc1`, the TGI in assay [1], in assay [2], in assay [3], in assay [4], in assay [6] and in assay [7] was > 100 µM in each case. Moreover, the total growth inhibition concentration (TGI) in assay [8] and in assay [10] was > 100 µM throughout.

`Cc1ccc(-n2cc([Si](C)(C)C)nn2)s1`: the TGI in assay [1], in assay [2], in [3], in assay [4], in [5] and in [6] was > 100 µM throughout. Moreover, the TGI in [7], in assay [10] and in assay [9] was > 100 µM in each case.

On to `CCN1CCC(O)(/C=C/c2ccc(OC)cc2)C(C(=O)/C=C/c2ccc(OC)cc2)C1` (stereo not given), for which the TGI in [1] amounted to 27.9 µM; in assay [2], 29.2 µM; in [4], 10.7 µM; in assay [5] it was 21.3 µM; in [6], 19 µM; in assay [7], 24.4 µM. Moreover, the TGI in assay [8] amounted to 26.4 µM; in [9], 22.5 µM.

Turning to `Cc1nc2ccccc2c(/C=C/c2ccc(Cl)cc2)c1C(=O)/C=C/c1ccccc1`, in assay [7], the GI50 is 1.74 µM and the TGI was found to be 3.22 µM.

Consider `Cc1cc(S(=O)(=O)/N=C(/NN)NNc2cccc(C(F)(F)F)n2)c(S)cc1Cl`, for which the concentration for total growth inhibition (TGI) in assay [3] was determined as 58.3 µM; in assay [5] it was 23.8 µM; in assay [6], 40.6 µM; in assay [7], 33.5 µM; in assay [8], 63.8 µM; in assay [10], 54.4 µM. This molecule also showed a TGI in [9] of 53 µM.

As for `COc1cc(Br)c(CC2C3=C(CCN2C(=O)C2CCC2)CC(=O)CC3)cc1O` (stereo not given), the TGI in [1] was 51.9 µM; in [2] it was > 100 µM; in assay [3], > 100 µM; in assay [5], 53.6 µM; in assay [6], 35.7 µM; in [7], > 100 µM. In addition, the TGI in assay [8] is > 100 µM; in assay [10], 85.5 µM; in assay [9] it was > 100 µM.

As for `CN1C/C(=C\C=C\c2ccccc2)C(=O)/C(=C/C=C/c2ccccc2)C1`, the TGI in assay [1], in assay [2], in assay [3], in assay [7], in assay [8] and in assay [9] was > 100 µM throughout.

Turning to `CCCCNC(=O)/N=C/c1c(O)c2ccccc2oc1=O`, the TGI in assay [1], in assay [3], in assay [5], in assay [7] and in [8] was > 100 µM in each case.

In the case of `O=C1NCCS(=O)(=O)N2CCC[C@@H]12`, the TGI in assay [1], in assay [2], in assay [3], in assay [5], in [7] and in [8] was > 100 µM throughout. In addition, in [9], the TGI was > 100 µM.

As for `O=C1c2ccccc2C(=O)c2[nH]c(Cc3ccc(F)cc3)nc21`, the TGI in assay [2] is 31.2 µM; in assay [3] it was 35.3 µM; in assay [5], 74.6 µM; in assay [7] it was 35 µM; in [8] it was 39.8 µM.

For the molecule `CC(=O)Nc1ccccc1NC1CC(C)N(c2ccccc2)N1C(C)=O` (stereo not given), the TGI in assay [1], in [2], in assay [3], in assay [4], in assay [5] and in [6] was > 10 µM in each case. The TGI in [7], in [8] and in [9] was > 10 µM each time.

`COc1ccc2nc3cc(Cl)ccc3c(NCCNc3c4ccc(Cl)cc4nc4ccc(OC)cc34)c2c1`: the GI50 in [5] is 2.01 µM; in assay [6] it was 1.76 µM; in assay [7] it was 1.86 µM; in assay [9], 1.73 µM. Further, the total growth inhibition concentration (TGI) in assay [5] came to 3.51 µM; in assay [6], 3.21 µM; in assay [7], 3.4 µM; in assay [9], 3.13 µM.

For `CC(C)(C)OC(=O)NCC(=O)N1CCN(C(=O)CNC(=O)OC(C)(C)C)CC1`, the TGI in assay [1], in assay [2], in assay [3], in [4], in assay [5] and in [6] was > 100 µM each time. Further, the TGI in assay [7], in [8] and in [9] was > 100 µM throughout.

On to `O=c1c2ccccc2nc(N/N=C/c2ccccc2O)n1-c1ccccc1`, for which the TGI in assay [1] is > 100 µM; in assay [2], > 100 µM; in assay [3], 5.43 µM; in assay [4], > 100 µM; in assay [5], 81.3 µM; in assay [6], > 100 µM. Further, the results for the TGI in assay [7], in assay [10] and in [9] were > 100 µM, 39.5 µM and > 100 µM, respectively.

Take `O=C1CSc2cc([N+](=O)[O-])ccc2N1`: the concentration for total growth inhibition (TGI) in [1], in assay [2], in assay [3], in [7], in [8] and in assay [9] was > 100 µM each time.

With `NCCCNCCCCN1CC1`, the TGI in [1] was > 28 µM; in assay [2] it was > 55.9 µM; in assay [4], > 100 µM; in [5], 4.91 µM; in assay [6], > 100 µM; in assay [7], > 20.1 µM. For the same molecule, the values for the TGI in assay [8] and in assay [10] were 16.7 µM and 66.5 µM, respectively.

On to `O=C(N/N=C/c1cc(Br)cc(Br)c1[O-])c1ccccc1O.O=C(N/N=C/c1cc(Br)cc(Br)c1[O-])c1ccccc1O.[Ni+2]`, for which the TGI is 2.65 µM in [1]; 1.11 µM in assay [2]; 1.34 µM in assay [3]; 2.02 µM in [5]; 1.96 µM in assay [7]; 2.97 µM in assay [8]. Further, the TGI in assay [9] came to 1.95 µM.

As to `NC(CSSCC(N)Cc1ccccc1)Cc1ccccc1` (stereo not given), the TGI in assay [1], in assay [2], in assay [3], in [7], in assay [8] and in assay [9] was > 100 µM in each case.

With `CSc1scc2c1/C(=N/NC(N)=O)CCC2`, the TGI in assay [1] was > 100 µM; in assay [2], > 100 µM; in [3] it was > 100 µM; in assay [4] it was > 100 µM; in assay [5], 90 µM; in assay [6], > 100 µM. For the same molecule, the TGI in [7], in assay [10] and in [9] was > 100 µM throughout.

`COc1ccc(C[C@H](N)C(=O)N2C[C@@H](CO)C[C@@H](n3ccc(=O)[nH]c3=O)C2)cc1`: the TGI in assay [1], in assay [3], in assay [5], in assay [7], in assay [8] and in assay [9] was > 100 µM in each case.

As to `O=c1oc2ccccc2c(O)c1C(C/C(CCN1CCCC1)=N\Nc1ccccc1)c1ccccc1` (stereo not given), the TGI in assay [1] is > 100 µM; in assay [2], > 100 µM; in assay [3], > 100 µM; in assay [5] it was 83.6 µM; in assay [8], > 100 µM; in [9] it was > 100 µM.

`NC1CC=C(COC(=O)C(O)(c2ccccc2)C2CC2)CC1` (stereo not given): the TGI in assay [1], in assay [2], in [3], in assay [4], in assay [7] and in [8] was > 100 µM each time. For the same molecule, the TGI in [9] was > 100 µM.

Consider `CCC[C@@H]1C(=O)N=C(N)N1C(=O)OCc1ccccc1`, for which the TGI in assay [1], in assay [2], in assay [3], in assay [4], in [6] and in assay [7] was > 100 µM throughout. The TGI in assay [8] and in assay [10] was > 100 µM throughout.

With `COc1ccc(N2C(=O)C3c4[nH]c5ccccc5c4C4CCCCC4C3C2=O)cc1` (stereo not given), the TGI in assay [1] was > 100 µM; in [2], 36 µM; in [3], 28.6 µM; in [5], 50.3 µM; in assay [7], 42.4 µM; in [8], 37.7 µM. Also, the TGI in assay [9] was 52.7 µM.

In the case of `COc1ccc(C2=NN=C3C(c4ccccc4)=Nc4ccccc4N3C2)cc1`, the TGI in [1] was > 100 µM; in [4] it was 85 µM; in [5], > 100 µM; in assay [6] it was > 100 µM; in assay [7] it was > 100 µM; in [8], > 100 µM. The TGI in [9] is > 100 µM.

`COC1OC2=CCC3C(=O)NC(=O)C3C2[C@H](OCc2ccccc2)C1OCc1ccccc1` (stereo not given in full): the TGI came out at 4.7 µM in [1]; 32.7 µM in [2]; 3.07 µM in assay [3]; 4.15 µM in assay [5]; 3.3 µM in assay [7]; 3.39 µM in assay [8]. In assay [9], this molecule gave a TGI of 30.8 µM.

Regarding `COc1ccc(-c2nn(-c3ccc(NC(=O)Nc4ccc(Cl)c(C(F)(F)F)c4)cc3)cc2-c2ccncc2)cc1Cl`, the GI50 in [1] is 1.77 µM; in assay [3] it was 2.02 µM; in [4], 1.7 µM; in assay [5], 1.14 µM; in assay [6], 1.79 µM; in [7], 1.67 µM. Further, the figures for the GI50 in assay [8] and in assay [10] were 1.83 µM and 1.1 µM, respectively. The total growth inhibition concentration (TGI) in [1] was 8.17 µM; in assay [3] it was 20.7 µM; in assay [4] it was 4.54 µM; in assay [5], 3.84 µM; in assay [6] it was 4.8 µM; in assay [7], 3.64 µM. For the same molecule, the concentration for total growth inhibition (TGI) turned out to be 14.4 µM in assay [8] and 4.22 µM in [10].

Consider `CC1(C)N=C(c2ccccn2)C(c2ccccn2)=NC1(C)C`, for which the TGI in assay [2], in assay [3], in assay [5] and in assay [8] was > 100 µM each time.

For `COc1ccc2c(c1)OC[C@@H]1c3cc(O)c(OCc4ccccc4)cc3O[C@H]21`, the TGI in assay [1] was 67.9 µM; in assay [2], > 100 µM; in [3], > 100 µM; in assay [5] it was 61.7 µM; in assay [7], > 100 µM; in assay [8] it was 60.1 µM. Besides, the TGI in assay [9] was > 100 µM.

With `CCOC(=O)c1c(-c2cccc3ccccc23)c(C#N)c(=S)n(C2OC(COC(C)=O)C(OC(C)=O)C(OC(C)=O)C2OC(C)=O)c1C` (stereo not given), the TGI in assay [1], in assay [2], in assay [3], in assay [4], in assay [5] and in assay [6] was > 100 µM throughout. In addition, the TGI in assay [7] and in [9] was > 100 µM throughout.

`COC(=O)c1c(O)ccc2c1c1c(n2Cc2ccccc2)C(=O)c2ccccc2C1`: the TGI in assay [1], in assay [2], in [3], in [4], in assay [6] and in [7] was > 100 µM each time. The TGI in [10] and in assay [9] was > 100 µM each time.
